Tests used:
Assay type in all cases: in vivo
[1] = system: white blood cell count and classification in BALF of COPD model mouse; experiment: Effect on white blood cell count and classification in BALF of COPD model mouse; settings: COPD mouse (LPS plus smoke exposure 30 days), ig 7 d, dose/kg: dexamethasone 1 mg, Test group 1 50, 2 25, 3 10, picrinine 10, vallesamine 6, scholaricine 7, 19-epi-scholaricine 2 mg, x ± SD
Protocol: (§1) Animal source: 25˜30 g male ICR mouse, from laboratory animal department of Kunming Medical University, License No. SCXK (Dian) 2011-0004.
(§2) Method and route: lipopolysaccharide (LPS) plus smoke exposure was used for 30 days to induce mouse chronic obstructive pulmonary disease model; and after intragastrical administration for 7 d at a dose of 20 mL/kg, the animal was sacrificed at the eighth day.
(§3) Picrinine group (10 mg/kg), Vallesamine group (6.0 mg/kg), Scholaricine group (7.0 mg/kg), 19-epischolaricine group (2.0 mg/kg).
(§4) Sample preparation: all the samples were prepared by using 0.5% carboxymethylcellulose sodium (0.5% CMC-Na).
Group and dose: in Test group 1, the ratio of picrinine, vallesamine, scholaricine and 19-epischolaricine by weight was 48:40:29:10, and the other groups and doses thereof were as described in Example 10.
Test index: total number of white blood cells and inflammatory cell classification in bronchoalveolar lavage fluid (BALF) were used as indexes, and were determined by full-automatic hemocytometer.

[2] = system: IL-6 in serum of COPD model mouse; experiment: Effect on IL-6 in serum of COPD model mouse; settings: ELISA, ig 7 d, dose/kg: dexamethasone 1 mg, Test group 1 50, 2 25, 3 10, picrinine 10, vallesamine 6, scholaricine 7, 19-epi-scholaricine 2 mg, x ± SD
Protocol: as §1, §2, §3, §4
Group and dose: in Test group 1, the ratio of picrinine, vallesamine, scholaricine and 19-epischolaricine by weight was 38:30:27:7, and the other groups and doses thereof were as described in Example 10.
Test index: IL-6 in serum was used as index, and was determined by enzyme linked immunosorbent assay.

[3] = system: CRP in serum in COPD model mouse; experiment: Effect on CRP in serum in COPD model mouse; settings: ELISA, ig 7 d, dose/kg: dexamethasone 1 mg, Test group 1 50, 2 25, 3 10, picrinine 10, vallesamine 6, scholaricine 7, 19-epi-scholaricine 2 mg, x ± SD
Protocol: as §1, §2, §3, §4
Group and dose: in Test group 1, the ratio of picrinine, vallesamine, scholaricine and 19-epischolaricine by weight was 25:19:20:4, and the other groups and doses thereof were as described in Example 10.
Test index: CRP in serum was used as index, and was determined by enzyme linked immunosorbent assay.

[4] = system: SOD in serum and homogenate of COPD model mouse; experiment: Effect on SOD in serum and homogenate of COPD model mouse; settings: ig 7 d, dose/kg: dexamethasone 1 mg, Test group 1 50, 2 25, 3 10, picrinine 10, vallesamine 6, scholaricine 7, 19-epi-scholaricine 2 mg, x ± SD
Protocol: as §1, §2, §3, §4
Group and dose: in Test group 1, the ratio of picrinine, vallesamine, scholaricine and 19-epischolaricine by weight was 16:11:12:3, and the other groups and doses thereof were as described in Example 10.
Test index: SOD in serum and lung homogenate was used as index, and was determined by xanthine oxidase method.

[5] = system: MDA in serum and homogenate of COPD model mouse; experiment: Effect on MDA in serum and homogenate of COPD model mouse; settings: ig 7 d, dose/kg: dexamethasone 1 mg, Test group 1 50, 2 25, 3 10, picrinine 10, vallesamine 6, scholaricine 7, 19-epi-scholaricine 2 mg, x ± SD
Protocol: as §1, §2, §3, §4
Group and dose: in Test group 1, the ratio of picrinine, vallesamine, scholaricine and 19-epischolaricine by weight was 9:6:5:1, and the other groups and doses thereof were as described in Example 10.
Test index: MDA in serum and homogenate was used as index, and was determined by thibabituric acid method.

[6] = system: WBC count and eosinophil percentage in BALF of asthma model mouse; experiment: Effect on WBC count and eosinophil percentage in BALF of asthma model mouse; settings: OVA-induced asthma mouse, ig 7 d, dose/kg: dexamethasone 2 mg, Test group 1 50, 2 25, picrinine 5.0, vallesamine 3.0, scholaricine 3.0, 19-epi-scholaricine 3.5 mg, x ± SD
Protocol: as §1
(§5) Method and route: ovalbumin (OVA) was used to induce mouse asthma model, and after intragastrical administration for 7 d at a dose of 20 mL/kg, the animal was sacrificed at the eighth day.
(§6) Test group 1: picrinine, vallesamine, scholaricine and 19-epischolaricine prepared in Example 1.7 were homogeneously mixed at different ratios by weight (50 mg/kg), Test group 2: the alkaloid composition prepared in Example 1.4 (25 mg/kg). […]
as §4
Group and dose: in Test group 1, the ratio of picrinine, vallesamine, scholaricine and 19-epischolaricine by weight was 41:45:28:7, and the other groups and doses thereof were as described in Example 11.
Test index: number of white blood cells (WBCs) and number of eosinophil in bronchoalveolar lavage fluid (BALF) were used as index, and were determined by full-automatic hemocytometer.

[7] = system: Eotaxin in serum of asthma model mouse; experiment: Effect on Eotaxin in serum of asthma model mouse; settings: ELISA, ig 7 d, dose/kg: dexamethasone 2.0 mg, Test group 1 50, 2 25, picrinine 5.0, vallesamine 3.0, scholaricine 3.0, 19-epi-scholaricine 3.5 mg, x ± SD
Protocol: as §1, §5, §6, §4
Group and dose: in Test group 1, the ratio of picrinine, vallesamine, scholaricine and 19-epischolaricine by weight was 37:42:30:8, and the other groups and doses thereof were as described in Example 11.
Test index: eosinophil chemotactic factor (Eotaxin) in serum was used as index, and was determined by enzyme linked immunosorbent assay.

[8] = system: IgE in serum of asthma model mouse; experiment: Effect on IgE in serum of asthma model mouse; settings: ELISA, ig 7 d, dose/kg: dexamethasone 2.0 mg, Test group 1 50, 2 25, picrinine 5.0, vallesamine 3.0, scholaricine 3.0, 19-epi-scholaricine 3.5 mg, x ± SD
Protocol: as §1, §5, §6, §4
Group and dose: In Test group 1, the ratio of picrinine, vallesamine, scholaricine and 19-epischolaricine by weight was 30:33:27:6, and the other groups and doses thereof were as described in Example 11.
Test index: immunoglobulin IgE in serum was used as index, and was determined by enzyme linked immunosorbent assay.

[9] = system: IL-4 in BALF of asthma model mouse; experiment: Effect on IL-4 in BALF of asthma model mouse; settings: ELISA, ig 7 d, dose/kg: dexamethasone 2.0 mg, Test group 1 50, 2 25, picrinine 5.0, vallesamine 3.0, scholaricine 3.0, 19-epi-scholaricine 3.5 mg, x ± SD
Protocol: as §1, §5, §6, §4
Group and dose: in Test group 1, the ratio of picrinine, vallesamine, scholaricine and 19-epischolaricine by weight was 25:18:15:3, and the other groups and doses thereof were as described in Example 11. […]

[10] = system: IL-10 in BALF of asthma model mouse; experiment: Effect on IL-10 in BALF of asthma model mouse; settings: ELISA, ig 7 d, dose/kg: dexamethasone 2.0 mg, Test group 1 50, 2 25, picrinine 5.0, vallesamine 3.0, scholaricine 3.0, 19-epi-scholaricine 3.5 mg, x ± SD
Protocol: as §1, §5, §6, §4
Group and dose: in Test group 1, the ratio of picrinine, vallesamine, scholaricine and 19-epischolaricine by weight was 18:13:14:3, and the other groups and doses thereof were as described in Example 11.
Test index: IL-10 in BALF was used as index, and was determined by enzyme linked immunosorbent assay.

[11] = system: SOD in serum and BALF of asthma model mouse; experiment: Effect on SOD in serum and BALF of asthma model mouse; settings: ig 7 d, dose/kg: dexamethasone 2.0 mg, Test group 1 50, 2 25, picrinine 5.0, vallesamine 3.0, scholaricine 3.0, 19-epi-scholaricine 3.5 mg, x ± SD
Protocol: as §1, §5, §6, §4
Group and dose: in Test group 1, the ratio of picrinine, vallesamine, scholaricine and 19-epischolaricine by weight was 12:10:9:2, and the other groups and doses thereof were as described in Example 11.
Test index: SOD in serum and BALF was used as index, and was determined by xanthine oxidase method.

[12] = system: MDA in serum and BALF of asthma model mouse; experiment: Effect on MDA in serum and BALF of asthma model mouse; settings: ig 7 d, dose/kg: dexamethasone 2.0 mg, Test group 1 50, 2 25, picrinine 5.0, vallesamine 3.0, scholaricine 3.0, 19-epi-scholaricine 3.5 mg, x ± SD
Protocol: as §1, §5, §6, §4
Group and dose: in Test group 1, the ratio of picrinine, vallesamine, scholaricine and 19-epischolaricine by weight was 8:6:5:1, and the other groups and doses thereof were as described in Example 11.
Test index: MDA in serum and BALF was used as index, and was determined by thiobarbituric acid method.

With `C[C@@H]1C[C@H]2[C@@H]3CCC4=CC(=O)C=C[C@]4(C)[C@@]3(F)[C@@H](O)C[C@]2(C)[C@@]1(O)C(=O)CO` [dexamethasone, reference compound] the Leukocyte number [1] was 1.1 ± 0.5 ×10^5/mL, the Neutrophil number [1] was 0.53 ± 0.50 ×10^5/mL and the IL-6 [2] was 22.0 ± 2.0 pg/mL. For the same compound, the CRP [3] was 22.3 ± 2.0 pg/mL, the SOD homogenate ([4]; lung homogenate) was 63.92 ± 5.84 U/mL and the “SOD Serum” value ([4]; serum) was 86.85 ± 9.48 U/mL. For the same compound, the “MDA Homogenate” value ([5]; lung homogenate) was 6.23 ± 0.60 nmol/mL, the “MDA Serum” value ([5]; serum) was 14.04 ± 3.64 nmol/mL and the Eosinophil percentage [6] was 4.32 ± 1.12 %. The “Number of WBCs” value [6] was 0.50 ± 0.17 ×10^9/L, the Eotaxin [7] was 7.87 ± 0.45 pg/mL and the IgE [8] was 3.23 ± 0.53 g μg/mL. It also gave an IL-4 [9] of 9.96 ± 4.03 pg/mL, an IL-10 [10] of 17.45 ± 5.60 pg/mL and an SOD lavage fluid ([11]; BALF) of 76.57 ± 12.52 U/mL. The SOD Serum ([11]; serum) was 74.83 ± 8.43 U/mL, the MDA lavage fluid ([12]; BALF) was 2.17 ± .17 nmol/mL and the MDA Serum ([12]; serum) was 10.99 ± 2.38 nmol/mL.
